The subject of assay [1] is S. aureus NRRL B2747. Briefly: MIC, agar incorporation method. It counts as cell-based, Staphylococcus aureus. Conditions: Staphylococcus aureus, NRRLB2747, 32° C., 24 hours, read-out: Minimal Inhibitory Concentration. Here is the method:
(§1) The compounds of the present invention were tested for their ability to inhibit the growth of microorganisms by in vitro tests. Generally the in vitro tests involve growing representative microorganisms under conditions favorable to such growth and measuring the effectiveness of one or more compounds in inhibiting or destroying the growth of the microorganisms. The microorganisms used include representative bacteria, fungi and yeasts.
(§2) A representative selection of the test microorganisms were cultured in a nutrient broth, such as, for example, Eugon, commercially available from Difco Laboratories, Detroit, Michigan. Bacteria and Candida species were cultured for 24 hours at 32°-37° C. and fungi were cultured for approximately one week at 32° C. Inocula were prepared by suspending the growth or spores from a slant culture in sufficient sterile normal (0.9 percent) saline or Eugon broth, to yield cell or spore concentrations of 1,000,000 cells per milliliter. Anaerobic bacteria were cultured for 48-72 hours at 32°-37° C. in a thioglycollate containing medium, for example, Fluid Thioglycollate medium or NIH thioglycollate broth, commercially available from Difco Laboratories.
(§3) The compounds of the present invention were tested for activity against bacteria, yeasts and fungi by the agar incorporation method described below. MA 1347, 3-(dimethylaminomethyl)flavanone (disclosed in U.S. Pat. No. 3,753,985) was used as a comparative standard along with controls for each solvent system used.
(§4) A series of agar plates containing two-fold dilutions of each compound to be tested, ranging in concentration from 100 to 3.1 mcg/ml of agar medium was prepared. Aliquots of each concentration (100, 50, 25, 12.5, 6.2, and 3.1) prepared in N,N-dimethylformamide or 50 percent aqueous DMF were added to liquid Eugon agar at 48° C. (one part test solution to 100 parts agar). In some cases, tests with further dilutions to 0.125 mcg/ml were conducted. The agar medium, containing the 3-methylene flavanone or chromanone compound to be tested, was then dispensed into petri dishes and allowed to solidify. The solidified plates were kept overnight at room temperatures to dry the surface of the agar.
(§5) The agar plates were then inoculated with a drop of the standardized cell or spore suspension. Inoculated plates were incubated at 32° C. The inhibition end-point or minimum inhibitory concentration (MIC) shown in Table D represent the lowest concentration of test compound which inhibited the growth of the microorganism. Visual determination of growth inhibition was used. Bacteria and yeast end-points were determined after 24 hours incubation; molds, dermatophytes and anaerobes after 48-72 hours incubation. MIC values shown as ranges represent the extremes found in repeat assays. Virtually all such values were written plus or minus one dilution, the accepted variation of a two-fold dilution assay.

Assay [2] relates to Clostridium acetobutylicum ATCC 824. Kind of assay: MIC, agar incorporation method, anaerobic. It counts as cell-based. Conditions: ATCC824, 48 h, 48 hours at 35° C., GasPak Anaerobic Jar, read-out: Minimal Inhibitory Concentration. How it is done: as §1, §2, §3, §4, §5
(§6) *Anaerobic: 48 hours incubation at 35° C. GasPak Anaerobic Jar

The test system of assay [3] is Propionobacterium acnes ATCC 6919. Briefly: MIC, agar incorporation method, anaerobic. Format: cell-based. Conditions: 48 hours at 35° C., GasPak Anaerobic Jar, read-out: Minimal Inhibitory Concentration. How it is done: as §1, §2, §3, §4, §5, §6
The test system of assay [4] is Trichophyton mentagrophytes ATCC 4807. Briefly: MIC, agar incorporation method. It counts as cell-based. Conditions: ATCC4807, 32° C., 48-72 hours, read-out: Minimal Inhibitory Concentration. How it is done:
as §1, §2, §3, §4, §5

In the next assay the test system is A. fumigatus NRRL 165. Kind of assay: MIC, agar incorporation method. Conditions: Aspergillus fumigatus, NRRL165, 32° C., 48-72 hours, read-out: Minimal Inhibitory Concentration. It counts as cell-based. How it is done:
as §1, §2, §3, §4, §5

For the next assay, the system named is C. albicans NRRL Y-477. Kind of assay: MIC, agar incorporation method. Format: cell-based. Conditions: Candida albicans, NRRLY477, 32° C., 24 hours, read-out: Minimal Inhibitory Concentration. Here is the method: as §1, §2, §3, §4, §5
Assay [5] has as its system Aspergillus niger ATCC 16404. Kind of assay: MIC, agar incorporation method. It counts as cell-based. Conditions: ATCC16404, 32° C., 48-72 hours, read-out: Minimal Inhibitory Concentration. Here is the method:
as §1, §2, §3, §4, §5

Assay [6] concerns Escherichia coli ATCC 8739. Kind of assay: MIC, agar incorporation method. Format: cell-based. Conditions: ATCC8739, 32° C., 24 hours, read-out: Minimal Inhibitory Concentration. Here is the method: as §1, §2, §3, §4, §5
The subject of assay [7] is Streptococcus faecalis ATCC 10541. Kind of assay: MIC, agar incorporation method. Format: cell-based. Conditions: Enterococcus faecalis, ATCC10541; 32° C., 24 hours; read-out: Minimal Inhibitory Concentration. How it is done: as §1, §2, §3, §4, §5
Assay [8] relates to Pseudomonas aeruginosa ATCC 14502. Briefly: MIC, agar incorporation method. Format: cell-based. Conditions: ATCC14502, 32° C., 24 hours, read-out: Minimal Inhibitory Concentration. Here is the method:
as §1, §2, §3, §4, §5

A further assay concerns C. tropicalis NRRL Y1410. Briefly: MIC, agar incorporation method. It counts as cell-based. Conditions: Candida tropicalis, NRRLY1410; 32° C., 24 hours; read-out: Minimal Inhibitory Concentration. How it is done: as §1, §2, §3, §4, §5
The test system of assay [9] is Microsporum gypseum ATCC 14683. Kind of assay: MIC, agar incorporation method. Conditions: Nannizzia gypsea, ATCC14683, 32° C., 48-72 hours; read-out: Minimal Inhibitory Concentration. It counts as cell-based. How it is done:
as §1, §2, §3, §4, §5

A further assay deals with T. mentagrophytes CDC. Briefly: MIC, agar incorporation method. Format: cell-based. Conditions: Trichophyton mentagrophytes, 32° C., 48-72 hours, read-out: Minimal Inhibitory Concentration. How it is done: as §1, §2, §3, §4, §5
Assay [10] relates to Sarcina subflava ATCC 7468. Briefly: MIC, agar incorporation method. Format: cell-based. Conditions: ATCC7468, 32° C., 24 hours, read-out: Minimal Inhibitory Concentration. Here is the method:
as §1, §2, §3, §4, §5

Assay [11] has as its system Proteus vulgaris NRRL B123. Kind of assay: MIC, agar incorporation method. It counts as cell-based. Conditions: NRRLB123, 32° C., 24 hours, read-out: Minimal Inhibitory Concentration. Here is the method: as §1, §2, §3, §4, §5
A further assay has as its system T. mentagrophytes TM-2. Briefly: MIC, agar incorporation method. Conditions: Trichophyton mentagrophytes, TM2, 32° C., 48-72 hours, read-out: Minimal Inhibitory Concentration. Format: cell-based. How it is done:
as §1, §2, §3, §4, §5

The test system of a further assay is T. rubrum ATCC 10218. Kind of assay: MIC, agar incorporation method. Conditions: Trichophyton rubrum, ATCC10218; 32° C., 48-72 hours; read-out: Minimal Inhibitory Concentration. Format: cell-based. How it is done:
as §1, §2, §3, §4, §5

The subject of the next assay is C. guillermondii VM 42. Briefly: MIC, agar incorporation method. Format: cell-based. Conditions: 32° C., 24 hours; read-out: Minimal Inhibitory Concentration. How it is done: as §1, §2, §3, §4, §5
Another assay has as its system A. fumigatus NRRL 163. Kind of assay: MIC, agar incorporation method. It counts as cell-based. Conditions: Aspergillus fumigatus, NRRL163, NRRL 163; 32° C., 48-72 hours; read-out: Minimal Inhibitory Concentration. How it is done:
as §1, §2, §3, §4, §5

A further assay relates to C. krusei VM 29B. Briefly: MIC, agar incorporation method. Format: cell-based. Conditions: Pichia kudriavzevii, VM29B; 32° C., 24 hours; read-out: Minimal Inhibitory Concentration. How it is done: as §1, §2, §3, §4, §5
Assay [12] relates to Staphylococcus aureus ATCC 6538. Kind of assay: MIC, agar incorporation method. It counts as cell-based. Conditions: Staphylococcus aureus, ATCC6538; S. aureus ATCC 6538; 32° C., 24 hours; read-out: Minimal Inhibitory Concentration. Here is the method:
as §1, §2, §3, §4, §5

For assay [13], the system named is Candida albicans ATCC 10231. Briefly: MIC, agar incorporation method. Conditions: ATCC10231, C. albicans ATCC 10231, 32° C., 24 hours, read-out: Minimal Inhibitory Concentration. Format: cell-based. How it is done:
as §1, §2, §3, §4, §5

The subject of assay [14] is Clostridium sporogenes ATCC 11437. Briefly: MIC, agar incorporation method, anaerobic. Conditions: ATCC11437, 48 hours at 35° C., GasPak Anaerobic Jar, read-out: Minimal Inhibitory Concentration. It counts as cell-based. How it is done: as §1, §2, §3, §4, §5, §6
Assay [15] deals with Bacteriodides fragilis ATCC 8482. Kind of assay: MIC, agar incorporation method, anaerobic. Conditions: 48 hours at 35° C., GasPak Anaerobic Jar, read-out: Minimal Inhibitory Concentration. It counts as cell-based. Here is the method:
as §1, §2, §3, §4, §5, §6

Assay [16] has as its system S. aureus NRRL B2747. Kind of assay: MIC, agar incorporation method, anaerobic. Format: cell-based. Conditions: Staphylococcus aureus, NRRLB2747, 48 hours at 35° C., GasPak Anaerobic Jar, read-out: Minimal Inhibitory Concentration. Here is the method:
as §1, §2, §3, §4, §5, §6

Another assay relates to T. tonsurans ATCC 10217. Briefly: MIC, agar incorporation method. It counts as cell-based. Conditions: Trichophyton tonsurans, ATCC10217; 32° C., 48-72 hours; read-out: Minimal Inhibitory Concentration. Here is the method: as §1, §2, §3, §4, §5

Values after ≈ are worked out from the molar mass of the structure shown.

For `C=C1C(=O)c2ccccc2OC1c1ccc(Cl)cc1` (stereo not drawn) [Ex. 3, 4'-chloro-3-methylene flavanone], the MIC with S. aureus NRRL B2747 [1] was 3.1 µg/mL (≈ 11.5 µM); in assay [2], not above 100 µg/mL; in assay [3], not above 100 µg/mL; in [4], 6.2 µg/mL (≈ 22.9 µM); in the assay on A. fumigatus NRRL 165, 50 µg/mL (≈ 185 µM); with C. albicans NRRL Y-477, 12.5 µg/mL (≈ 46.2 µM). The MIC in assay [5] is 25 µg/mL (≈ 92.3 µM); in [6] it was more than 100 µg/mL; in [7], 25 µg/mL (≈ 92.3 µM); in [8], more than 100 µg/mL; with C. tropicalis NRRL Y1410, 25 µg/mL (≈ 92.3 µM); in assay [9], 6.2 µg/mL (≈ 22.9 µM). Further, the MIC with T. mentagrophytes CDC is 6.2 µg/mL (≈ 22.9 µM); in [10], 6.2 µg/mL (≈ 22.9 µM); in [11], more than 100 µg/mL; in the assay with T. mentagrophytes TM-2 it was 6.2 µg/mL (≈ 22.9 µM); in the assay on T. rubrum ATCC 10218, not above 3.1 µg/mL; in the assay on C. guillermondii VM 42 it was 25 µg/mL (≈ 92.3 µM). Besides, the MIC is 6.2 µg/mL (≈ 22.9 µM) in the assay with A. fumigatus NRRL 163, 12.5 µg/mL (≈ 46.2 µM) in the assay with C. krusei VM 29B, not above 3.1 µg/mL in [12] and 12.5 µg/mL (≈ 46.2 µM) in assay [13].
Regarding `C=C1C(=O)c2ccccc2OC1c1ccc(Cl)cc1Cl` (stereo not drawn) [Ex. 4, 2',4'-dichloro-3-methylene flavanone], the MIC in the assay with S. aureus NRRL B2747 [1] is 1.56 µg/mL (≈ 5.11 µM); in assay [14] it was not above 0.78 µg/mL; in assay [3] it was 3.1 µg/mL (≈ 10.2 µM); in assay [15] it was 3.1 µg/mL (≈ 10.2 µM); in the assay with S. aureus NRRL B2747 [16], 6.2 µg/mL (≈ 20.3 µM); in assay [4] it was 12.5 µg/mL (≈ 41 µM). The MIC in the assay with T. tonsurans ATCC 10217 is 6.2 µg/mL (≈ 20.3 µM); with C. albicans NRRL Y-477, 25 µg/mL (≈ 81.9 µM); in assay [5] it was 100 µg/mL (≈ 328 µM); in assay [6], more than 100 µg/mL; in assay [7], 25 to 50 µg/mL (≈ 81.9 to 164 µM); in assay [8], more than 100 µg/mL. In addition, the MIC in the assay with C. tropicalis NRRL Y1410 is 50 µg/mL (≈ 164 µM); in assay [9], 6.2 to 12.5 µg/mL (≈ 20.3 to 41 µM); in the assay on T. mentagrophytes CDC, 12.5 to 25 µg/mL (≈ 41 to 81.9 µM); in [10], 3.1 µg/mL (≈ 10.2 µM); in the assay on T. mentagrophytes TM-2, 12.5 to 25 µg/mL (≈ 41 to 81.9 µM); in the assay with T. rubrum ATCC 10218, 12.5 µg/mL (≈ 41 µM). Also, the MIC in the assay on C. guillermondii VM 42 is 50 µg/mL (≈ 164 µM); with A. fumigatus NRRL 163, 50 µg/mL (≈ 164 µM); with C. krusei VM 29B, 25 to 50 µg/mL (≈ 81.9 to 164 µM); in assay [12], 1.56 µg/mL (≈ 5.11 µM); in assay [13], 25 µg/mL (≈ 81.9 µM).

For the origin of these results see patent US4241069A, “3-Methylene flavanones and 3-methylene chromanones” (Miles Laboratories, Inc., priority 1979, dated 1980).
